According to ChEMBL document CHEMBL1201862, “PubChem BioAssay data set” (2004):
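All cell lines were grown in 96-well plates and treated with compound for 48 hours. At the GI50, growth is halved.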 Activity calls are given as the source filed them. Cut-off read from the data, not from the text of the source: active = GI50 up to about 1.1 µM and inactive = higher.

What was measured:
Assay in all cases: NCI anticancer screen, dose series, 48 h
M19-MEL = system: M19-MEL
SNB-78 = system: SNB-78
ACHN = system: ACHN
HCT-15 = system: HCT-15
HT-29 = system: HT-29
U-251 = system: U-251
LXFL 529 = system: LXFL 529
786-0 = system: 786-0
RXF 393 = system: RXF 393
NCI-H460 = system: NCI-H460
HCC 2998 = system: HCC 2998
SW-620 = system: SW-620
DLD-1 = system: DLD-1
XF498 = system: XF498
NCI/ADR-RES = system: NCI/ADR-RES
PC-3 = system: PC-3
MDA-MB-231 = system: MDA-MB-231
Hs-578T = system: Hs-578T
MDA-N = system: MDA-N
T47D = system: T47D

Structure (SMILES)	GI50 (M19-MEL)	GI50 (SNB-78)	GI50 (ACHN)	GI50 (HCT-15) [µM]	GI50 (HT-29)	GI50 (U-251)	GI50 (LXFL 529)	GI50 (786-0)	GI50 (RXF 393)	GI50 (NCI-H460)	GI50 (HCC 2998)	GI50 (SW-620)	GI50 (DLD-1)	GI50 (XF498)	GI50 (NCI/ADR-RES)	GI50 (PC-3)	GI50 (MDA-MB-231)	GI50 (Hs-578T)	GI50 (MDA-N)	GI50 (T47D)
C=C=C(Sc1ccccc1)C(C)(C)OC(C)=O	15.8 µM (inactive)	29.8 µM (inactive)	> 10 µM (inactive)	20.6	18.7 µM (inactive)	16.9 µM (inactive)	18.2 µM (inactive)	16.5 µM (inactive)	14.7 µM (inactive)	21.1 µM (inactive)	20.9 µM (inactive)	17.6 µM (inactive)	16.5 µM (inactive)							
C1=CCN(c2ccccc2)CC1		29.8 µM (inactive)	21.5 µM (inactive)	14.8	23.6 µM (inactive)	> 100 µM (inactive)	18.6 µM (inactive)		12.2 µM (inactive)	> 100 µM (inactive)	49.9 µM (inactive)	16.3 µM (inactive)	15.5 µM (inactive)	17.1 µM (inactive)						
COc1cc(C(=O)CC2OC(=O)C(Cl)=C2Cl)ccc1Cl (stereo not given)	> 100 µM (inactive)	> 100 µM (inactive)	> 100 µM (inactive)	> 100	> 100 µM (inactive)	> 100 µM (inactive)	> 100 µM (inactive)		> 100 µM (inactive)	> 100 µM (inactive)	> 100 µM (inactive)	> 100 µM (inactive)	> 100 µM (inactive)	> 100 µM (inactive)						
N#CC(C#N)=C1CCC2C(=C(C#N)C#N)CCC12 (stereo not given)	> 100 µM (inactive)	> 100 µM (inactive)		> 100	> 100 µM (inactive)	> 100 µM (inactive)	> 100 µM (inactive)	> 100 µM (inactive)	> 100 µM (inactive)	> 100 µM (inactive)	> 100 µM (inactive)	> 100 µM (inactive)	> 100 µM (inactive)	> 100 µM (inactive)						
O=C(O)C1CC2C=CCC(C2)C1 (stereo not given)	> 100 µM (inactive)	> 100 µM (inactive)	> 100 µM (inactive)	> 100	> 100 µM (inactive)	> 100 µM (inactive)	> 100 µM (inactive)	> 100 µM (inactive)	> 100 µM (inactive)	> 100 µM (inactive)		> 100 µM (inactive)	> 100 µM (inactive)	> 100 µM (inactive)						
CC1SC2=NC3=C(c4ccccc4C3=O)C(c3ccccc3Cl)N2C1=O (stereo not given)	> 100 µM (inactive)		> 100 µM (inactive)	> 100	> 100 µM (inactive)	> 100 µM (inactive)	> 100 µM (inactive)	> 100 µM (inactive)		> 100 µM (inactive)	> 100 µM (inactive)	> 100 µM (inactive)	> 100 µM (inactive)	> 100 µM (inactive)						
CC(C)OP(=O)(OC(C)C)/C(F)=N/Nc1ccc([N+](=O)[O-])cc1	> 100 µM (inactive)		> 100 µM (inactive)	> 100	> 100 µM (inactive)	> 100 µM (inactive)	> 100 µM (inactive)			> 100 µM (inactive)	> 100 µM (inactive)	> 100 µM (inactive)	> 100 µM (inactive)	> 100 µM (inactive)						
COC1(O)c2cccc(Cl)c2C(=O)N1C1(C(N)=O)CCCCC1 (stereo not given)	> 100 µM (inactive)	> 100 µM (inactive)		> 100	> 43.7 µM (inactive)	> 100 µM (inactive)			> 100 µM (inactive)	> 100 µM (inactive)	> 100 µM (inactive)	> 100 µM (inactive)	> 100 µM (inactive)	> 100 µM (inactive)	> 100 µM (inactive)					
C1CCCCc2nc3c(nc2CCC1)c1nc2c(nc1c1nc4c(nc31)CCCCCCCC4)CCCCCCCC2		> 100 µM (inactive)	> 100 µM (inactive)	> 100	> 100 µM (inactive)	> 100 µM (inactive)	> 100 µM (inactive)	> 100 µM (inactive)		> 100 µM (inactive)	> 100 µM (inactive)	> 100 µM (inactive)	> 100 µM (inactive)							
COc1ccc(Nc2cnc3cc(N)ccc3n2)cc1OC	> 100 µM (inactive)		83.9 µM (inactive)	> 100	> 100 µM (inactive)	40.7 µM (inactive)	13.2 µM (inactive)		> 100 µM (inactive)	23.9 µM (inactive)	29.2 µM (inactive)	> 100 µM (inactive)	> 100 µM (inactive)	54.6 µM (inactive)						
c1ccc(COc2cccc3ccc[n+](Cc4ccccc4)c23)cc1	3.59 µM (inactive)		8.2 µM (inactive)	27.5	5.01 µM (inactive)	4.01 µM (inactive)	3.62 µM (inactive)	13.4 µM (inactive)	8.75 µM (inactive)	8.93 µM (inactive)	13.1 µM (inactive)	9.75 µM (inactive)	11.5 µM (inactive)	11.2 µM (inactive)						
COc1ccc(-c2cc(N3CCN(c4ccccc4)CC3)c(C#N)c(=O)o2)cc1		22.6 µM (inactive)	28.6 µM (inactive)	65.2	> 100 µM (inactive)	37.6 µM (inactive)	27.3 µM (inactive)		13.7 µM (inactive)	26.5 µM (inactive)	65.6 µM (inactive)	42 µM (inactive)	57 µM (inactive)	6.59 µM (inactive)						
O=C(O)/C(O)=C1/C=C(c2ccccc2)c2ccccc21	22.2 µM (inactive)	31.4 µM (inactive)	30.1 µM (inactive)	22.2	33.1 µM (inactive)	18.7 µM (inactive)	27.5 µM (inactive)	28.4 µM (inactive)	19.4 µM (inactive)	26.4 µM (inactive)	21.5 µM (inactive)	20 µM (inactive)	30.1 µM (inactive)							
CN(N=O)c1nc2c(C(N)=O)ncn2s1			57.3 µM (inactive)	> 100	> 100 µM (inactive)	> 100 µM (inactive)		85.1 µM (inactive)	> 100 µM (inactive)	52.1 µM (inactive)	45.6 µM (inactive)	46.9 µM (inactive)			39.7 µM (inactive)	91.2 µM (inactive)	36.3 µM (inactive)	> 100 µM (inactive)	> 100 µM (inactive)	> 100 µM (inactive)
CSc1nc2c(nc(N)n2C2OCC(O)C(O)C2O)c(=O)[nH]1 (stereo not given)	> 100 µM (inactive)	> 100 µM (inactive)	> 100 µM (inactive)		> 100 µM (inactive)	> 100 µM (inactive)	> 100 µM (inactive)	> 100 µM (inactive)	> 100 µM (inactive)	> 100 µM (inactive)	> 100 µM (inactive)	> 100 µM (inactive)	> 100 µM (inactive)	> 100 µM (inactive)						
Cc1c2ccncc2c(C)c2c1[nH]c1ccc(OCCN(C)C)cc12	0.582 µM (active)	1.13 µM (inactive)		0.123	0.171 µM (active)	0.209 µM (active)			0.265 µM (active)	0.0308 µM (active)	0.22 µM (active)	0.0353 µM (active)	0.0893 µM (active)	0.807 µM (active)	0.0916 µM (active)					
CC(=O)c1ccc(NC(=O)/C(CC(=O)/C=C/c2ccccc2)=N/NC(N)=S)cc1			66.1 µM (inactive)	60.5	41.5 µM (inactive)	> 100 µM (inactive)		> 100 µM (inactive)	> 100 µM (inactive)	68.4 µM (inactive)	> 100 µM (inactive)	> 100 µM (inactive)			50 µM (inactive)	> 100 µM (inactive)	> 100 µM (inactive)	> 100 µM (inactive)	> 100 µM (inactive)	32.6 µM (inactive)
CC(C)=CCC/C(C)=C/CC/C(C)=C/C(O)c1ccccc1 (stereo not given)	18.3 µM (inactive)	22.6 µM (inactive)	17.4 µM (inactive)	18.8	18.4 µM (inactive)	18.2 µM (inactive)	17.8 µM (inactive)			19.5 µM (inactive)		20.2 µM (inactive)	18.5 µM (inactive)							
O=C1CCCC1C(O)(C(F)(F)Cl)C(F)(F)Cl (stereo not given)			> 10 µM (inactive)	> 10	> 10 µM (inactive)	> 10 µM (inactive)		> 10 µM (inactive)	> 10 µM (inactive)	> 10 µM (inactive)	> 10 µM (inactive)	> 10 µM (inactive)			> 10 µM (inactive)	> 10 µM (inactive)	> 10 µM (inactive)	> 10 µM (inactive)	> 10 µM (inactive)	> 10 µM (inactive)
